How the values were obtained:
[1] = test system: A375 cells (V600E activated B-RAF); experiment: In vitro assay for tumor cell growth (MTT, 72 hours incubation); assay type: cell-based; conditions: Homo sapiens, A-375, 72 h, growth inhibition of A375 cells, unit inferred
Protocol: In Vitro Assays for Tumor Cell Growth
Cell lines are obtained from the American Type Tissue Culture Collection (Maryland, USA) and cultured in media containing heat-inactivated 10% fetal bovine serum. Cell cultures are also maintained in 10 U/mL penicillin, 100 μg/mL streptomycin and 2 mM glutamine. At least triplicate determinations for each individual test compound concentration are made and data is plotted as mean±standard deviation relative to the control vehicle.

[2] = target: Braf V600E (recombinant V600E mutated B-RAF) (Homo sapiens, UniProt P15056, V600E); experiment: In vitro assay for determining inhibition of mutant B-RAF kinase; assay type: biochemical; conditions: 10 nM recombinant V600E mutated B-RAF, 1 μM MEK (K97R) as substrate
Protocol: In Vitro Assay for Determining Inhibition of B-RAF Kinase or Mutant B-RAF Kinase
Solutions of varying concentrations of test compounds or vehicle are added to 10 nM recombinant V600E mutated B-RAF proteins incubated in the presence of different concentrations of ATP and 1 μM MEK (K97R) as substrate, as previously described (Wilhelm, S. M., et al., Cancer Res., 64: 7099-7109, 2004; Mason, C. S., et al., EMBO J. 18: 2137-2148, 1999; Marais, R., et al., J. Biol. Chem., 272: 4378-4383, 1997). At least triplicate determinations for each individual test compound concentration are made and data is plotted as mean±standard deviation relative to the control vehicle.

Chain of Braf V600E (recombinant V600E mutated B-RAF) (P15056 whole entry V600E): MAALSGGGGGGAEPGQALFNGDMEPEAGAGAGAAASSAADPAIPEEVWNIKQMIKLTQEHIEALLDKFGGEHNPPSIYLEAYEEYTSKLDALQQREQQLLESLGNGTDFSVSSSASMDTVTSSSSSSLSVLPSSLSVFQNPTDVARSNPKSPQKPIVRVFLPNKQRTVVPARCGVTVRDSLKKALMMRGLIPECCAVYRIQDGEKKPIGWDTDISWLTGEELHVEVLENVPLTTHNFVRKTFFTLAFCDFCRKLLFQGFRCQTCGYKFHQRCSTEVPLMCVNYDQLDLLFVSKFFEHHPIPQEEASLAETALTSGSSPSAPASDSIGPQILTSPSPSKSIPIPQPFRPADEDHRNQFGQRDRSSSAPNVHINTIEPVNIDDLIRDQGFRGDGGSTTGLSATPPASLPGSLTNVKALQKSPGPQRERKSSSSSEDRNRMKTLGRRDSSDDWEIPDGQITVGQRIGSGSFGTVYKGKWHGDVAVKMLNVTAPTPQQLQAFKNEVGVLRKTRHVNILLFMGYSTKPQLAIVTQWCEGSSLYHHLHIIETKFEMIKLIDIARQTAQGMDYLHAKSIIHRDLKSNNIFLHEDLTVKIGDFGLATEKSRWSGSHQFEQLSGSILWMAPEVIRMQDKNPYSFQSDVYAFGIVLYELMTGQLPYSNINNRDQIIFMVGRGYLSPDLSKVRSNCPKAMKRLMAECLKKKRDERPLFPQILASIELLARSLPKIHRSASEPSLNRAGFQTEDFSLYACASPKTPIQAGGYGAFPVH

Row | SMILES | IC50 [1] | IC50 [2]
1 | CCn1cc(-c2cccc(NC(=O)Nc3ccc(C(C)(C)C)cc3)c2)c(-c2ccncc2)n1 [Example 4, 1-(4-(tert-butyl)phenyl)-3-(3-(1-ethyl-3-(pyridin-4-yl)-1H-pyrazol-4-yl)phenyl)urea] | 506 nM | 6.53 nM
2 | CCn1cc(-c2cccc(NC(=O)Nc3ccccc3F)c2)c(-c2ccncc2)n1 [Example 15, 1-(3-(1-ethyl-3-(pyridin-4-yl)-1H-pyrazol-4-yl)phenyl)-3-(2-fluorophenyl)urea] |  | 53.8 nM
3 | CCn1cc(-c2cccc(NC(=O)Nc3cccc(C(F)(F)F)c3)c2)c(-c2ccncc2)n1 [Example 7, 1-(3-(1-ethyl-3-(pyridin-4-yl)-1H-pyrazol-4-yl)phenyl)-3-(3-(trifluoromethyl)phenyl)urea] | 1750 nM | 4.44 nM
4 | CCn1cc(-c2cccc(NC(=O)Nc3cccc(I)c3)c2)c(-c2ccncc2)n1 [Example 20, 1-(3-(1-ethyl-3-(pyridin-4-yl)-1H-pyrazol-4-yl)phenyl)-3-(3-iodophenyl)urea] | 2080 nM | 
5 | CCn1cc(-c2cccc(NC(=O)Nc3ccc(C(F)(F)F)cc3)c2)c(-c2ccncc2)n1 [Example 3, 1-(3-(1-ethyl-3-(pyridin-4-yl)-1H-pyrazol-4-yl)phenyl)-3-(4-(trifluoromethyl)phenyl)urea] | 202 nM | 0.72 nM
6 | CCn1cc(-c2cccc(NC(=O)Nc3ccc(C)cc3)c2)c(-c2ccncc2)n1 [Example 5, 1-(3-(1-ethyl-3-(pyridin-4-yl)-1H-pyrazol-4-yl)phenyl)-3-(p-tolyl)urea] | 815 nM | 1.61 nM
7 | CCn1cc(-c2cccc(NC(=O)Nc3ccc(I)cc3)c2)c(-c2ccncc2)n1 [Example 10, 1-(3-(1-ethyl-3-(pyridin-4-yl)-1H-pyrazol-4-yl)phenyl)-3-(4-iodophenyl)urea] | 49 nM | 2.2 nM
8 | CCn1cc(-c2cccc(NC(=O)Nc3ccc(C(F)(F)F)cc3)c2)c(-c2ccnc(N)n2)n1 [Example 28, 1-(3-(3-(2-aminopyrimidin-4-yl)-1-ethyl-1H-pyrazol-4-yl)phenyl)-3-(4-(trifluoromethyl)phenyl)urea] | 362 nM | 3.5 nM
9 | CC(C)n1cc(-c2cccc(NC(=O)Nc3ccc(C(F)(F)F)cc3)c2)c(-c2ccncc2)n1 [Example 23, 1-(3-(1-isopropyl-3-(pyridin-4-yl)-1H-pyrazol-4-yl)phenyl)-3-(4-(trifluoromethyl)phenyl)urea] | 1730 nM | 6 nM
10 | CCn1cc(-c2cccc(NC(=O)Nc3ccc(Cl)cc3Cl)c2)c(-c2ccncc2)n1 [Example 12, 1-(2,4-dichlorophenyl)-3-(3-(1-ethyl-3-(pyridin-4-yl)-1H-pyrazol-4-yl)phenyl)urea] | 1370 nM | 6.39 nM
11 | CCn1cc(-c2cccc(NC(=O)Nc3ccccc3Cl)c2)c(-c2ccncc2)n1 [Example 13, 1-(2-chlorophenyl)-3-(3-(1-ethyl-3-(pyridin-4-yl)-1H-pyrazol-4-yl)phenyl)urea] |  | 58.7 nM
12 | CCn1cc(-c2cccc(NC(=O)Nc3ccc(Br)c(F)c3)c2)c(-c2ccnc(N)n2)n1 [Example 27, 1-(3-(3-(2-aminopyrimidin-4-yl)-1-ethyl-1H-pyrazol-4-yl)phenyl)-3-(4-bromo-3-fluorophenyl)urea] | 571 nM | 
13 | CCn1cc(-c2cccc(NC(=O)Nc3ccc(Cl)c(C(F)(F)F)c3)c2)c(-c2ccncc2)n1 [Example 9, 1-(4-chloro-3-(trifluoromethyl)phenyl)-3-(3-(1-ethyl-3-(pyridin-4-yl)-1H-pyrazol-4-yl)phenyl)urea] | 1780 nM | 3.01 nM
14 | CC(C)(C)n1cc(-c2cccc(NC(=O)Nc3ccc(C(F)(F)F)cc3)c2)c(-c2ccncc2)n1 [Example 25, 1-(3-(1-(tert-butyl)-3-(pyridin-4-yl)-1H-pyrazol-4-yl)phenyl)-3-(4-(trifluoromethyl)phenyl)urea] |  | 1600 nM
15 | CC(C)(C)c1nc(-c2ccnc(N)n2)c(-c2cccc(NC(=O)Nc3ccc(C(F)(F)F)cc3)c2)s1 [Example 1, 1-(3-(4-(2-aminopyrimidin-4-yl)-2-(tert-butyl)thiazol-5-yl)phenyl)-3-(4-(trifluoromethyl)phenyl)urea] | > 10000 nM | 225 nM
16 | CCn1cc(-c2cccc(NC(=O)Nc3ccc(C(C)C)cc3)c2)c(-c2ccncc2)n1 [Example 6, 1-(3-(1-ethyl-3-(pyridin-4-yl)-1H-pyrazol-4-yl)phenyl)-3-(4-isopropylphenyl)urea] | 449 nM | 1.18 nM
17 | CC(C)(C)c1nc(-c2ccnc(N)n2)c(-c2cccc(NC(=O)Nc3ccc(C(F)(F)F)cc3)c2F)s1 [Example 2, 1-(3-(4-(2-aminopyrimidin-4-yl)-2-(tert-butyl)thiazol-5-yl)-2-fluorophenyl)-3-(4-(trifluoromethyl)phenyl)urea] | > 10000 nM | 3980 nM
18 | CC(C)n1cc(-c2cccc(NC(=O)Nc3ccc(I)c(F)c3)c2)c(-c2ccncc2)n1 [Example 24, 1-(3-fluoro-4-iodophenyl)-3-(3-(1-isopropyl-3-(pyridin-4-yl)-1H-pyrazol-4-yl)phenyl)urea] | 233 nM | 

More lines, now with the values ahead:

Row | IC50 [1] | IC50 [2] | SMILES
19 | 42 nM |  | CCn1cc(-c2cccc(NC(=O)Nc3ccc(I)c(F)c3)c2)c(-c2ccncc2)n1 [Example 19, 1-(3-(1-ethyl-3-(pyridin-4-yl)-1H-pyrazol-4-yl)phenyl)-3-(3-fluoro-4-iodophenyl)urea]
20 | 166 nM |  | CCn1cc(-c2cccc(NC(=O)Nc3ccc(I)cc3F)c2)c(-c2ccncc2)n1 [Example 17, 1-(3-(1-ethyl-3-(pyridin-4-yl)-1H-pyrazol-4-yl)phenyl)-3-(2-fluoro-4-iodophenyl)urea]
21 | 541 nM |  | CCn1cc(-c2cccc(NC(=O)Nc3ccc(Br)cc3F)c2)c(-c2ccncc2)n1 [Example 18, 1-(4-bromo-2-fluorophenyl)-3-(3-(1-ethyl-3-(pyridin-4-yl)-1H-pyrazol-4-yl)phenyl) urea]
22 | 3470 nM | 4.98 nM | CCn1cc(-c2cccc(NC(=O)Nc3cccc(C)c3)c2)c(-c2ccncc2)n1 [Example 11, 1-(3-(1-ethyl-3-(pyridin-4-yl)-1H-pyrazol-4-yl)phenyl)-3-(m-tolyl)urea]
23 | 83 nM |  | CCn1cc(-c2cccc(NC(=O)Nc3ccc(Br)c(F)c3)c2)c(-c2ccncc2)n1 [Example 22, 1-(4-bromo-3-fluorophenyl)-3-(3-(1-ethyl-3-(pyridin-4-yl)-1H-pyrazol-4-yl)phenyl)urea]
24 | 2540 nM | 4.31 nM | CCn1cc(-c2cccc(NC(=O)Nc3ccc(F)c(C(F)(F)F)c3)c2)c(-c2ccncc2)n1 [Example 8, 1-(3-(1-ethyl-3-(pyridin-4-yl)-1H-pyrazol-4-yl)phenyl)-3-(4-fluoro-3-(trifluoromethyl)phenyl)urea]
25 | 85 nM |  | CCn1cc(-c2cccc(NC(=O)Nc3ccc(Br)cc3)c2)c(-c2ccncc2)n1 [Example 21, 1-(4-bromophenyl)-3-(3-(1-ethyl-3-(pyridin-4-yl)-1H-pyrazol-4-yl)phenyl)urea]
26 | 272 nM | 2.31 nM | CCn1cc(-c2cccc(NC(=O)Nc3ccc(Cl)cc3)c2)c(-c2ccncc2)n1 [Example 16, 1-(4-chlorophenyl)-3-(3-(1-ethyl-3-(pyridin-4-yl)-1H-pyrazol-4-yl)phenyl)urea]
27 |  | 39.3 nM | CCn1cc(-c2cccc(NC(=O)Nc3cccc(F)c3)c2)c(-c2ccncc2)n1 [Example 14, 1-(3-(1-ethyl-3-(pyridin-4-yl)-1H-pyrazol-4-yl)phenyl)-3-(3-fluorophenyl)urea]

— US20150232452A1, “NOVEL RAF KINASE INHIBITORS” (Ruga Corporation, priority 2012, published 2015)
